In ChEMBL document CHEMBL1132025, “Macrocyclic hexapeptide analogues of the thrombin receptor (PAR-1) activation motif SFLLRN” (Bioorg Med Chem Lett, 1999):
Numbered stars: 1 amine (or outer) side, 2 acyl side, 3 side chain; on linkers, the order of the positions; unused ones are H or OH. Bridge positions count the residues as written; N and C are the ends. Square brackets hold non-standard residues; d marks the D form. Peptide text beside a SMILES is read from it. Phe(3-F) = N[C@@H](Cc1cccc(F)c1)C(=O)O; Phe(4-F) = N[C@@H](Cc1ccc(F)cc1)C(=O)O; X1 = O=C(CCCN[*:2])[*:1]; GABA = NCCCC(=O)O; βAla = NCCC(=O)O

Columns and labels:
Homo sapiens [1] = species on record: Homo sapiens; assay: (§1) Agonist activity to activate human platelet aggregation (gel-filtered platelets) at a concentration of 50 uM; assay type: functional
[2] = target: Proteinase-activated receptor 1 (Homo sapiens) (UniProt P25116); assay: In vitro antagonist activity to inhibit human platelet aggregation (gel-filtered platelets) induced by human thrombin at a concentration of 50 uM
Homo sapiens [3] = species on record: Homo sapiens; assay: as §1; assay type: functional, organism-based
Homo sapiens [4] = species on record: Homo sapiens; assay: Agonist activity to activate human platelet aggregation (gel-filtered platelets) at a concentration of 100 uM; Not active; assay type: functional

Row | inhibition [2] [%] | EC50 (Homo sapiens [3]) [µM] | EC50 (Homo sapiens [4]) | Compound | Aggregation (Homo sapiens [1]) [%]
1 | 5 |  |  | CC(C)C[C@@H]1NC(=O)[C@@H](NC(=O)[C@@H](CCc2ccccc2)NC(=O)[C@@H](N)CO)CCCCNC(=O)C[C@@H](C(N)=O)NC(=O)[C@H](CCCN=C(N)N)NC1=O | 16
2 | 2 |  |  | CC(C)C[C@@H]1NC(=O)[C@@H](NC(=O)[C@@H](CCc2ccccc2)NC(=O)CN)CCCCNC(=O)C[C@@H](C(N)=O)NC(=O)[C@H](CCCN=C(N)N)NC1=O | 5
3 | 1 |  |  | CC(C)C[C@@H]1NC(=O)[C@@H](NC(=O)[C@@H](CCc2ccccc2)NC(=O)CCN)CCCCNC(=O)C[C@@H](C(N)=O)NC(=O)[C@H](CCCN=C(N)N)NC1=O | 7
4 | 2 |  |  | CC(C)C[C@@H]1NC(=O)[C@@H](NC(=O)[C@@H](CCc2ccccc2)NC(=O)CCCN)CCCCNC(=O)C[C@@H](C(N)=O)NC(=O)[C@H](CCCN=C(N)N)NC1=O | 8
5 |  | 0.8 |  | CC(C)C[C@H](NC(=O)[C@H](CC(C)C)NC(=O)[C@H](Cc1ccccc1)NC(=O)[C@@H](N)CO)C(=O)N[C@@H](CCCN=C(N)N)C(=O)N[C@@H](CC(N)=O)C(N)=O | 
6 | 15 | 37 |  | CC(C)C[C@@H]1NC(=O)[C@@H](NC(=O)[C@@H](CCc2ccccc2)NC(=O)CCCN)CCCCNC(=O)C[C@@H](C(N)=O)NC(=O)[C@H](Cc2ccccc2)NC1=O | 
7 | 2 |  | Not Active | CC(C)C[C@@H]1NC(=O)[C@@H](NC(=O)[C@@H](CCc2ccccc2)NC(=O)[C@@H](N)CO)CCCCNC(=O)C[C@@H](C(N)=O)NC(=O)[C@H](Cc2ccccc2)NC1=O | 
8 | 44 | 30 |  | CC(C)C[C@@H]1NC(=O)[C@@](C)(NC(=O)[C@@H](Cc2ccccc2)NC(=O)CN)CCCCNC(=O)CCCNC(=O)C[C@@H](C(N)=O)NC(=O)[C@H](CCCN=C(N)N)NC1=O | 
9 | 16 | 43 |  | CC(C)C[C@@H]1NC(=O)[C@@H](NC(=O)[C@@H](CCc2ccccc2)NC(=O)CCN)CCCCNC(=O)C[C@@H](C(N)=O)NC(=O)[C@H](Cc2ccccc2)NC1=O | 
10 | 11 |  | Not Active | CC(C)C[C@@H]1NC(=O)[C@@H](NC(=O)[C@@H](Cc2ccccc2)NC(=O)CCN)CCCCNC(=O)C[C@@H](C(N)=O)NC(=O)[C@H](Cc2ccccc2)NC1=O | 
11 | 1 |  | Not Active | CC(C)C[C@@H]1NC(=O)[C@@H](NC(=O)[C@@H](CCc2ccccc2)NC(=O)CN)CCCCNC(=O)C[C@@H](C(N)=O)NC(=O)[C@H](Cc2ccccc2)NC1=O | 
12 | 2 | 66 |  | CC(C)C[C@@H]1NC(=O)[C@@H](NC(=O)[C@H](Cc2ccccc2)NC(=O)[C@H](C)N)CCCCNC(=O)C[C@@H](C(N)=O)NC(=O)[C@H](CCCN=C(N)N)NC1=O (H-AFKLRD-NH2; lactam 3-6) | 
13 | 23 | 24 |  | CC(C)C[C@@H]1NC(=O)[C@@H](NC(=O)[C@H](Cc2ccccc2)NC(=O)CN)CCCCNC(=O)C[C@@H](C(N)=O)NC(=O)[C@H](Cc2ccccc2)NC1=O (H-GFKLFD-NH2; lactam 3-6) | 
14 | 9 |  |  | CC(C)C[C@@H]1NC(=O)[C@@H](NC(=O)[C@H](Cc2ccccc2)NC(=O)CN)CCCCNC(=O)C[C@@H](C(N)=O)NC(=O)[C@H](CCCN=C(N)N)NC1=O (H-GFKLRD-NH2; lactam 3-6) | 15
15 | 11 | 63 |  | CC(C)C[C@@H]1NC(=O)[C@@H](NC(=O)[C@H](Cc2cccc(F)c2)NC(=O)CN)CCCCNC(=O)C[C@@H](C(N)=O)NC(=O)[C@H](Cc2ccccc2)NC1=O (H-G[Phe(3-F)]KLFD-NH2; lactam 3-6) | 
16 | 10 |  |  | CC(C)C[C@@H]1NC(=O)[C@@H](NC(=O)[C@H](Cc2cccc(F)c2)NC(=O)CN)CCCCNC(=O)C[C@@H](C(N)=O)NC(=O)[C@H](CCCN=C(N)N)NC1=O (H-G[Phe(3-F)]KLRD-NH2; lactam 3-6) | 6
17 | 14 | 60 |  | CC(C)C[C@@H]1NC(=O)[C@@H](NC(=O)[C@H](Cc2ccc(F)cc2)NC(=O)CN)CCCCNC(=O)C[C@@H](C(N)=O)NC(=O)[C@H](CCCN=C(N)N)NC1=O (H-G[Phe(4-F)]KLRD-NH2; lactam 3-6) | 
18 | 3 |  |  | CC(C)C[C@@H]1NC(=O)[C@H](CC(C)C)NC(=O)[C@H](Cc2ccccc2)NC(=O)[C@@H](N)CCCCNC(=O)C[C@@H](C(N)=O)NC(=O)[C@H](CCCN=C(N)N)NC1=O (H-KFLLRD-NH2; lactam 1-6) | 6
19 | 52 |  |  | CC(C)C[C@@H]1NC(=O)[C@H](CC(C)C)NC(=O)[C@H](Cc2ccccc2)NC(=O)[C@@H](N)CCCCNC(=O)CCCNC(=O)C[C@@H](C(N)=O)NC(=O)[C@H](CCCN=C(N)N)NC1=O (H-KFLLRD-NH2; linker 1-6 via X1) | 5
20 | 12 |  | Not Active | CC(C)C[C@@H]1NC(=O)[C@@H](NC(=O)[C@H](Cc2ccccc2)NC(=O)[C@@H](N)CO)CCCCNC(=O)C[C@@H](C(N)=O)NC(=O)[C@H](Cc2ccccc2)NC1=O (H-SFKLFD-NH2; lactam 3-6) | 
21 | 13 |  |  | CC(C)C[C@@H]1NC(=O)[C@@H](NC(=O)[C@H](Cc2ccccc2)NC(=O)[C@@H](N)CO)CCCCNC(=O)C[C@@H](C(N)=O)NC(=O)[C@H](CCCN=C(N)N)NC1=O (H-SFKLRD-NH2; lactam 3-6) | 16
22 | 23 |  | Not Active | CC(C)C[C@@H]1NC(=O)[C@@H](NC(=O)[C@H](Cc2cccc(F)c2)NC(=O)[C@@H](N)CO)CCCCNC(=O)C[C@@H](C(N)=O)NC(=O)[C@H](Cc2ccccc2)NC1=O (H-S[Phe(3-F)]KLFD-NH2; lactam 3-6) | 
23 | 5 |  |  | CC(C)C[C@@H]1NC(=O)[C@@H](NC(=O)[C@H](Cc2cccc(F)c2)NC(=O)[C@@H](N)CO)CCCCNC(=O)C[C@@H](C(N)=O)NC(=O)[C@H](CCCN=C(N)N)NC1=O (H-S[Phe(3-F)]KLRD-NH2; lactam 3-6) | 12
24 | 14 |  | Not Active | CC(C)C[C@@H]1NC(=O)[C@@H](NC(=O)[C@H](Cc2ccccc2)NC(=O)CCCN)CCCCNC(=O)C[C@@H](C(N)=O)NC(=O)[C@H](Cc2ccccc2)NC1=O (H-[GABA]FKLFD-NH2; lactam 3-6) | 
25 | 6 |  |  | CC(C)C[C@@H]1NC(=O)[C@@H](NC(=O)[C@H](Cc2ccccc2)NC(=O)CCCN)CCCCNC(=O)C[C@@H](C(N)=O)NC(=O)[C@H](CCCN=C(N)N)NC1=O (H-[GABA]FKLRD-NH2; lactam 3-6) | 6
26 | 27 |  | Not Active | CC(C)C[C@@H]1NC(=O)[C@@H](NC(=O)[C@H](Cc2cccc(F)c2)NC(=O)CCCN)CCCCNC(=O)C[C@@H](C(N)=O)NC(=O)[C@H](Cc2ccccc2)NC1=O (H-[GABA][Phe(3-F)]KLFD-NH2; lactam 3-6) | 
27 | 2 |  |  | CC(C)C[C@@H]1NC(=O)[C@@H](NC(=O)[C@H](Cc2cccc(F)c2)NC(=O)CCCN)CCCCNC(=O)C[C@@H](C(N)=O)NC(=O)[C@H](CCCN=C(N)N)NC1=O (H-[GABA][Phe(3-F)]KLRD-NH2; lactam 3-6) | 6
28 | 3 |  |  | CC(C)C[C@@H]1NC(=O)[C@@H](NC(=O)[C@H](Cc2ccccc2)NC(=O)CCN)CCCCNC(=O)C[C@@H](C(N)=O)NC(=O)[C@H](CCCN=C(N)N)NC1=O (H-[βAla]FKLRD-NH2; lactam 3-6) | 7
29 | 24 |  | Not Active | CC(C)C[C@@H]1NC(=O)[C@@H](NC(=O)[C@H](Cc2cccc(F)c2)NC(=O)CCN)CCCCNC(=O)C[C@@H](C(N)=O)NC(=O)[C@H](Cc2ccccc2)NC1=O (H-[βAla][Phe(3-F)]KLFD-NH2; lactam 3-6) | 
30 | 3 |  |  | CC(C)C[C@@H]1NC(=O)[C@@H](NC(=O)[C@H](Cc2cccc(F)c2)NC(=O)CCN)CCCCNC(=O)C[C@@H](C(N)=O)NC(=O)[C@H](CCCN=C(N)N)NC1=O (H-[βAla][Phe(3-F)]KLRD-NH2; lactam 3-6) | 7
